molecular target: T1, RORγ-LBD (Homo sapiens, UniProt P51449); test: RORγ-Ligand Binding Domain (LBD) TR-FRET Assay; type: biochemical; conditions: recombinant HIS-tagged RORγ-LBD lysate, biotinylated SRC1-2 LXXLL peptide
T1 construct: made in house; host or cells: SF9 insect cells, baculovirus; crude lysate used
T1 sequence (P51449 269-508 limits assumed): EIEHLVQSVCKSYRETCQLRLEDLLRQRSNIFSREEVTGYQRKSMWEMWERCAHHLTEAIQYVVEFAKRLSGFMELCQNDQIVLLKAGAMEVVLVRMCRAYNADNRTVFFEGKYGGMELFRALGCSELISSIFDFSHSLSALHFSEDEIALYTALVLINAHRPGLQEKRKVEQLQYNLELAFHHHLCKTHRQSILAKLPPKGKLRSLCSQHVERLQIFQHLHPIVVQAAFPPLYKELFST
Description: Recombinant, HIS-tagged RORγ-LBD was expressed in SF9 cells using a baculovirus expression system. Cells were lysed and the lysate was used as a source for RORγ-LBD for the assay. A 1:80 dilution of RORγ-LBD lysate in assay buffer (25 mM HEPES pH 7.0, 100 mM NaCl, 0.01% Tween, 0.1% BSA) was prepared and 5 μL was added to each well (RORγ-LBD final concentration ˜3 nM). Control wells received lysate from SF9 cells not expressing RORγ-LBD.
Compounds to be tested were diluted to 100× final test concentration in DMSO and further diluted to 4× final test concentration using assay buffer to provide the test compound mixture. An aliquot (5 μL) of the test compound mixture was added to each well.
A 4× stock of biotinylated-LXXLL peptide from SRC1-2 (Biotin-[…]) was prepared in assay buffer and a 5 μL aliquot added to each well (450 nM final concentration). A 4× solution of europium tagged anti-HIS antibody (2 nM final concentration) and APC conjugated streptavidin (60 nM final concentration) were prepared and a 5 μL aliquot added to each well.
The final assay mixture was incubated for 4 hours to overnight, and the fluorescence signal was measured on an Envision plate reader: (Excitation filter=340 nm; APC emission=665 nm; Europium emission=615 nm; dichroic mirror=D400/D630; delay time=100 μs, integration time=200 μs).
EC50 values for test compounds were calculated from the quotient of the fluorescence signal at 665 nm divided by the fluorescence signal at 615 nm using GraphPad Prism software

EC50	Structure (SMILES)
< 0.15 µM	O=C(Nc1ccc2c(c1)C(S(=O)(=O)c1ccc(C(F)(F)F)cc1)CCC2)c1c(F)cccc1Cl (stereo not shown) [Compound 1, 2-Chloro-6-fluoro-N-[8-(4-trifluoromethylbenzenesulfonyl)-5,6,7,8-tetrahydronaphthalen-2-yl]benzamide]
< 0.15 µM	O=C(Nc1ccc2c(c1)C(S(=O)(=O)c1ccc(C(F)(F)F)cc1)CCC2)c1c(Cl)cccc1C(F)(F)F (stereo not shown) [IV-1]
< 0.15 µM	O=C(Nc1ccc2c(c1)C(S(=O)(=O)c1ccc(C(F)(F)F)cc1)CCC2)c1c(F)cccc1C(F)(F)F (stereo not shown) [IV-2]
< 0.15 µM	O=C(Nc1ccc2c(c1)C(S(=O)(=O)c1ccc(C(F)(F)F)cc1)CCC2)c1c(F)cccc1F (stereo not shown) [IV-4]
